Where “and” joins values, the source holds several entries; their conditions need not be identical. Identical values can stand only once.
Key:
[1] = target: Recombinant human Src enzyme (Homo sapiens, UniProt P12931); experiment: Src kinase assay (LANCE homogeneous FRET); assay type: biochemical; settings: 100 μM ATP, 70 min at 37° C.; multiple entries = tested multiple times
Protocol: Recombinant human Src enzyme was obtained from PanVera (P3044). […] Homogeneous fluorescence resonance energy transfer kinase assays were performed using the europium/APC detection format (LANCE, Perkin Elmer). Src enzyme (10 ng) was mixed with biotinylated peptide (final concentration 2 μM), 50 mM Hepes (pH 7.5), 10 mM MgCl2, 20 ug/ml BSA, 0.001% Brij-35 (Sigma), 100 μM ATP, 1% DMSO. The kinase reaction was incubated for 70 min at 37° C. The reaction was stopped with EDTA at a final concentration of 30 mM EDTA/25 mM Hepes (pH 7.5)/10 μg/ml BSA. The mixture was combined with Eu-labeled anti-phosphotyrosine antibody PT66 (Perkin Elmer, AD0068) and Streptavidin Surelight-APC (Perkin Elmer, CR130-100) in 50 mM Hepes (pH 7.5)/20 μg/ml BSA, and incubated for 30 min according to manufacturer's specifications. Fluorescence intensity at 665 nm was used to monitor the extent of the kinase reaction. Multiple entries for a given compound indicate that it was tested multiple times.

[2] = target: Rat2 fibroblasts stably transformed with v-Src/Hu c-Src fusion gene (Homo sapiens, UniProt P12931, cells depend on it, form not given); experiment: Anchorage independent Src-transformed fibroblast proliferation assay; assay type: cell-based, rat; settings: suspension growth, MTS on Day 5; multiple entries = tested multiple times; read-out: Src cell IC50
Sequence of Rat2 fibroblasts stably transformed with v-Src/Hu c-Src fusion gene (P12931 whole entry, change not shown, the tested form may be a part): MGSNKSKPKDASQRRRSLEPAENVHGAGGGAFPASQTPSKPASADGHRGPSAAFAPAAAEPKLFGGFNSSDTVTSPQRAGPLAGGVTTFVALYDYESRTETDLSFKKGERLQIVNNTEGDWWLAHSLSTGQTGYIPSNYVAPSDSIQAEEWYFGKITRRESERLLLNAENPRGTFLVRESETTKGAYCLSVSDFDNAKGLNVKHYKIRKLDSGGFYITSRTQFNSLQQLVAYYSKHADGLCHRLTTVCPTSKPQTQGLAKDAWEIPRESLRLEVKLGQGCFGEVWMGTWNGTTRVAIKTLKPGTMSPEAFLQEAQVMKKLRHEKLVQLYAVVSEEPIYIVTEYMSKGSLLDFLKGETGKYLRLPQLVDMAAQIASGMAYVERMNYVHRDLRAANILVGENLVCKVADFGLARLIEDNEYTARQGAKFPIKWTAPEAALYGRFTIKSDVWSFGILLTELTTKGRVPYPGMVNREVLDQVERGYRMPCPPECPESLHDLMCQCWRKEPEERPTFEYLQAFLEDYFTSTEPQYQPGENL
Protocol: Anchorage Independent Src-transformed Fibroblast Proliferation Assay
Rat2 fibroblasts stably transformed with a plasmid containing a CMV promotor controlled v-Src/Hu c-Src fusion gene in which the catalytic domain of human c-Src was inserted in place of the v-Src catalytic domain in the v-Src gene are used for the measurement of src dependent suspension growth. Ultra-low cluster plates (Costar # 3474) are seeded with 10,000 cells per well on Day 1. Alternatively, Ultra-low cluster plates (Costar 3474) treated with Sigmacote (Sigma), rinsed with 70% ethanol, after drying in the hood, are seeded with 5000 cells.

[3] = test system: rat model of transient focal ischemia; experiment: Rat model of transient focal ischemia (90 min MCA occlusion, reperfusion 48 hours); assay type: in vivo, Wistar rats; settings: for reduction in infarct volume as a percent of control: 48 hours post MCA occlusion, statistical error 7-10%; for improved recovery from stroke-induced neurological deficits, as a percent of control: evaluated over 48 hours, statistical error 10-12%
Protocol: IV Administration of Example 2 Provides Neuroprotection in a Model of Transient Focal Ischemia
Example 2 was tested in a rat model of transient focal ischemia. Wistar rats were subjected to a 90 min occlusion of the middle cerebral artery (MCA) using an intraluminal suture approach as described by Longa et al., Stroke 1989, 20:84 followed by reperfusion for 48 hours. Four hours after the initial onset of ischemia, animals received compound of Example 2 as a single i.v. bolus in 5% dextrose, 0.9% lactic acid at pH 4.5-5.0 (3 mg/kg, 10 mg/kg or 30 mg/kg). Following reperfusion, the animals were evaluated over a 48 hour period for neurological function deficit. Infarct size was measured following sacrifice at 48 hours post MCA occlusion.

[4] = test system: rat model of permanent occlusion of middle cerebral artery; experiment: Rat model of permanent occlusion of middle cerebral artery (permanent focal ischemia); assay type: in vivo
Protocol: IV Administration of Example 2 Provides Neuroprotection and Improves Long-Term Neurological Recovery in a Model of Permanent Focal Ischemia
Example 2 was tested in a rat model of permanent occlusion of middle cerebral artery, without the reperfusion, substantially as described by Chen et al., Stroke, 1986, 17:738. This is a more stringent model than the transient focal ischemia. Two hours following an electrocoagulation of middle cerebral artery, vehicle or Example 2 were administered at 10 mg/kg i.v followed by 3 additional doses of 10 mg/kg iv administered at 4, 24 and 26 hours post-induction of stroke. In one study, volume of infracted brain tissue was evaluated at 48 hour post-stroke. In a second study, animals were subjected to testing of sensori-motor function based on tactile and propioceptive limb placement substantially as described by DeRyck et al., Brain Res. 1992, 573:44 at three day intervals over a timecourse of three weeks following stroke. In the animals treated with Example 2 a statistically significant reduction by 24% of the infarct volume was found at 48 hours post-induction of stroke.

[5] = test system: rat model of intracerebral hemorrhage; experiment: Rat model of intracerebral hemorrhage induced by intrastriatal infusion of collagenase; assay type: in vivo; settings: measured 24 hours later
Protocol: IV Administration of Example 2 Provides Neuroprotection in the Model of Hemorrhagic Stroke
Example 2 was tested in a rat model of intracerebral hemorrhage induced by intrastriatal infusion of collagenase substantially as described by Rosenberg et al., Stroke, 1990, 20:801. In this model, infusion of collagenase into caudate nucleus leads to proteolytic destruction of collagen in basal lamina of blood vessels and induces intracranial bleeding and edema peaking in 24-48 hours. Example 2 was administered at 4 hours post-induction of hemorrhagic stroke as a single i.v injection at the doses of 10 mg/kg or 30 mg/kg. 24 hours later brain water content was determined as a measure of edema.

[6] = 10 mg/kg single i.v. bolus 4 hours after onset of ischemia
[7] = 30 mg/kg single i.v. bolus 4 hours after onset of ischemia

Sequence of Recombinant human Src enzyme (P12931 whole entry): as the sequence (P12931 whole entry, change not shown, the tested form may be a part) above

SMILES	IC50 [1]	GI50 [2]	reduction in infarct volume as a percent of control [3, 6] [%]	improved recovery from stroke-induced neurological deficits, as a percent of control [3, 6] [%]	reduction in infarct volume as a percent of control [3, 7] [%]	improved recovery from stroke-induced neurological deficits, as a percent of control [3, 7] [%]	reduction of the infarct volume ([4]; 10 mg/kg i.v. at 2, 4, 24 and 26 hours post-induction of stroke, 48 hours post-stroke) [%]	long-term sensorimotor recovery from neurological deficits (limb placement) ([4]; 10 mg/kg i.v. at 2, 4, 24 and 26 hours post-stroke, tested at three day intervals over three weeks)	reduction of post-hemorrhagic brain edema (brain water content) ([5]; 10 mg/kg single i.v. injection 4 hours post-induction) [%]	reduction of post-hemorrhagic brain edema (brain water content) ([5]; 30 mg/kg single i.v. injection 4 hours post-induction) [%]
COc1cc(Nc2c(C#N)cnc3cc(C#CCCN(C)C)c(OC)cc23)c(Cl)cc1Cl [Example 1, 4-[(2,4-Dichloro-5-methoxyphenyl)amino]-7-[4-(dimethylamino)but-1-ynyl]-6-methoxy-3-guinolinecarbonitrile]	5 nM and 4.7 nM	252 nM and 240 nM								
COc1cc(Nc2c(C#N)cnc3cc(C#CCCN4CCN(C)CC4)c(OC)cc23)c(Cl)cc1Cl [Example 2, 4-[(2,4-Dichloro-5-methoxyphenyl)amino]-6-methoxy-7-[4-(4-methylpiperazin-1-yl)but-1-ynyl]-3-guinolinecarbonitrile]	3.5 nM and 4.2 nM	71 nM and 70 nM and 77 nM	32	35	40	53	24	significantly improved long-term sensorimotor recovery	18	24
COc1cc(Nc2c(C#N)cnc3cc(C#CCCN4CCOCC4)c(OC)cc23)c(Cl)cc1Cl [Example 3, 4-[(2,4-Dichloro-5-methoxyphenyl)amino]-6-methoxy-7-(4-morpholin-4-ylbut-1-ynyl)-3-guinolinecarbonitrile]	4 nM and 4.1 nM	206 nM and 183 nM								

Now from value to compound, other results behind:

IC50 [1]	GI50 [2]	SMILES	reduction in infarct volume as a percent of control [3, 6] [%]	improved recovery from stroke-induced neurological deficits, as a percent of control [3, 6] [%]	reduction in infarct volume as a percent of control [3, 7] [%]	improved recovery from stroke-induced neurological deficits, as a percent of control [3, 7] [%]	reduction of the infarct volume ([4]; 10 mg/kg i.v. at 2, 4, 24 and 26 hours post-induction of stroke, 48 hours post-stroke) [%]	long-term sensorimotor recovery from neurological deficits (limb placement) ([4]; 10 mg/kg i.v. at 2, 4, 24 and 26 hours post-stroke, tested at three day intervals over three weeks)	reduction of post-hemorrhagic brain edema (brain water content) ([5]; 10 mg/kg single i.v. injection 4 hours post-induction) [%]	reduction of post-hemorrhagic brain edema (brain water content) ([5]; 30 mg/kg single i.v. injection 4 hours post-induction) [%]
5.9 nM and 4.8 nM	435 nM and 605 nM	COc1cc(Nc2c(C#N)cnc3cc(C#CCCN4CCNCC4)c(OC)cc23)c(Cl)cc1Cl [Example 4, 4-[(2,4-Dichloro-5-methoxyphenyl)amino]-6-methoxy-7-(4-Piperazin-1-ylbut-1-ynyl)-3-quinolinecarbonitrile]								
6.5 nM and 2.8 nM	96 nM and 183 nM and 154 nM and 103 nM	CCOc1cc2c(Nc3cc(OC)c(Cl)cc3Cl)c(C#N)cnc2cc1C#CCCN1CCN(C)CC1 [Example 5, 4-[(2,4-Dichloro-5-methoxyphenyl)amino]-6-ethoxy-7-[4-(4-methylpiperazin-1-yl)but-1-ynyl]-3-quinolinecarbonitrile]								
